Results taken from PMC11601558, “SLC6A19 inhibition facilitates urinary neutral amino acid excretion and lowers plasma phenylalanine” (JCI Insight, 2024).
Values joined by “and” are separate entries in the source; they are usually repeats but may differ in a detail not shown here. Identical values can stand only once.

Tested on: Pah^enu2 mice
Experiment: Urine amino acid excretion in Pah^enu2 mice after JN-170
Assay type: in vivo, mouse
Parameters: urine Gln excretion / urine Phe excretion: unit not given here
Conditions: for 12-hour urine Phe excretion (Fig 3c): individual Pah^enu2 mice
Protocol: Male homozygous BTBR-Pah<enu2>/J (Pah^enu2) aged 10–13 weeks were purchased from Jackson Laboratory (no. 002232). Immediately before dosing, each animal’s bladder was manually emptied and a plasma sample was drawn. Animals were dosed by oral gavage with vehicle (10% DMSO, 20% 2-hydroxypropyl-β-cyclodextrin [Sigma-Aldrich]) followed by a 1-week washout prior to dosing with JN-170 at doses ranging from 50 to 250 mg/kg. Following dosing with vehicle or JN-170, animals were individually placed in metabolic cages to collect urine samples. After collection of each urine sample, cages were rinsed with ultra-pure water to recover residual analytes. Blood samples were collected predose as well as 1, 3, 8, 12, and 24 hours after dosing with vehicle or JN-170 into tubes with EDTA as a […], and plasma was separated by centrifuging samples at 2,200g for 5 minutes at 4°C. Throughout the study, mice had access to food and water ad libitum. Plasma and urine samples were stored at –80°C until processing.Ten-week-old male WT C57Bl/6J animals (Si Bei Fu Laboratory Animal Technology Co. Ltd.) were dosed either with vehicle or 50–250 mg/kg JN-170 by oral gavage and blood and urine samples were collected as described. All animals had unrestricted access to food and water during the study; C57Bl/6J were kept on rodent maintenance diet from Beijing Keao Xieli, Pah^enu2 mice were kept on Teklad diet no. T.2018.
Urine and cage-wash samples were vortexed and centrifuged at 3,700g for 5 minutes to remove any solid precipitate. Neat samples and samples diluted 1:10 in water were further diluted 1:10 in crash solution (75% acetonitrile 25% methanol, 0.1% formic acid, 5 mM heavy labeled amino acids) to precipitate proteins. Samples were centrifuged at 3,700g for 5 minutes before the supernatant was transferred into an injection plate. Urine amino acid analysis was carried out using a quadrupole time of flight (QToF) LC-mass spectrometry (QToF-LC-MS) bioanalytical method. A standard curve of 1 mM down to 0.06 μM was used as the calibration curve to which samples were quantified. The amino acid concentrations were calculated with a 1/×2 linear regression over a concentration range of 60 nM to 1,000 μM of the individual amino acids. An Agilent QToF 6545 was operated in an accurate mass full scan range of 100–1,700 m/z positive ions formed by electrospray ionization with a normal phase HILIC chromatographic method. An Agilent InfinityLab Poroshell 120 HILIC-Z, 2.1 × 150 mm, 2.7 μm was used as the analytical column with 10 mM Ammonium Acetate in 0.1% FA as mobile phase A and 10 mM Ammonium Acetate in 95% ACN, 0.1% FA as mobile phase B. At a flow rate of 0.25 mL/min, the binary gradient increased from an initial 100% phase B to 90% phase B over 3 minutes. After 1.5 minutes, the gradient ramped to 80% mobile phase B. At 5.6 minutes into the gradient, mobile phase B ramped from 60% to 0% and held for 2 minutes before returning to initial conditions at 7.5 minutes. The gradient was stopped at 10 minutes.Total urine amino acid amounts were calculated by multiplying urine amino acid concentrations by the urine volume and adding the amount of amino acid recovered in the cage wash, which was calculated by multiplying the cage wash amino acid concentration by the cage wash volume.

[1] = Fig S3b, Pahenu2 mice, individual animals
[2] = Pah^enu2 mice, 0–3 hours after 200 mg/kg

N#Cc1ccc(-c2noc([C@]3(C(F)(F)F)CCN(C(=O)NCCC4(N)CC4)C3)n2)cc1 [JN-170] was tested, and the “urinary excretion of Phe, Pah^enu2 vs WT mice” value (0–3 hours after 200 mg/kg) was “approximately 60 fold”, the “change in 12 hour urine Arg excretion (Fig 3b)” value (50 mg/kg vs vehicle) was 0.3802 log FC and the “change in 12 hour urine Gln excretion (Fig 3b)” value (50 mg/kg vs vehicle) was 1.423 log FC. For the same compound, the “change in 12 hour urine Glu excretion (Fig 3b)” value (50 mg/kg vs vehicle) was 0.4771 log FC, the “change in 12 hour urine His excretion (Fig 3b)” value (50 mg/kg vs vehicle) was 1.279 log FC and the “change in 12 hour urine Lys excretion (Fig 3b)” value (50 mg/kg vs vehicle) was 0.2248 log FC. The “change in 12 hour urine Met excretion (Fig 3b)” value (50 mg/kg vs vehicle) was 0.6756 log FC, the “change in 12 hour urine Phe excretion (Fig 3b)” value (50 mg/kg vs vehicle) was 1.34 log FC and the “change in 12 hour urine Pro excretion (Fig 3b)” value (50 mg/kg vs vehicle) was -0.2483 log FC. The “change in 12 hour urine Ser excretion (Fig 3b)” value (50 mg/kg vs vehicle) was 0.9904 log FC, the “change in 12 hour urine Thr excretion (Fig 3b)” value (50 mg/kg vs vehicle) was 1.084 log FC and the “change in 12 hour urine Trp excretion (Fig 3b)” value (50 mg/kg vs vehicle) was 1.144 log FC. The “change in 12 hour urine Tyr excretion (Fig 3b)” value (50 mg/kg vs vehicle) was 1.331 log FC, the “12-hour urine Phe excretion (Fig 3c)” value (50 mg/kg) was 2329 µg and 2669 µg and 1215 µg and 2142 µg and 1931 µg and 2386 µg and the “change in 12 hour urine Arg excretion (Fig 3b)” value (100 mg/kg vs vehicle) was 0.4771 log FC. The “change in 12 hour urine Gln excretion (Fig 3b)” value (100 mg/kg vs vehicle) was 2.5092 log FC, the “change in 12 hour urine Glu excretion (Fig 3b)” value (100 mg/kg vs vehicle) was 0.7782 log FC and the “change in 12 hour urine His excretion (Fig 3b)” value (100 mg/kg vs vehicle) was 2.097 log FC. For the same compound, the “change in 12 hour urine Lys excretion (Fig 3b)” value (100 mg/kg vs vehicle) was 0.583 log FC, the “change in 12 hour urine Met excretion (Fig 3b)” value (100 mg/kg vs vehicle) was 1.421 log FC and the “change in 12 hour urine Phe excretion (Fig 3b)” value (100 mg/kg vs vehicle) was 1.508 log FC. For the same compound, the “change in 12 hour urine Pro excretion (Fig 3b)” value (100 mg/kg vs vehicle) was 0.2706 log FC, the “change in 12 hour urine Ser excretion (Fig 3b)” value (100 mg/kg vs vehicle) was 1.62 log FC and the “change in 12 hour urine Thr excretion (Fig 3b)” value (100 mg/kg vs vehicle) was 1.727 log FC. For the same compound, the “change in 12 hour urine Trp excretion (Fig 3b)” value (100 mg/kg vs vehicle) was 1.687 log FC, the “change in 12 hour urine Tyr excretion (Fig 3b)” value (100 mg/kg vs vehicle) was 1.929 log FC and the “12-hour urine Phe excretion (Fig 3c)” value (100 mg/kg) was 3398 µg and 3162 µg and 4227 µg and 2980 µg and 2439 µg and 2425 µg. For the same compound, the “12-hour urinary Phe excretion, mean ± SD” value (200 mg/kg) was 4,170 ± 1505 μg, the “change in 12 hour urine Arg excretion (Fig 3b)” value (200 mg/kg vs vehicle) was 0.4472 log FC and the “change in 12 hour urine Gln excretion (Fig 3b)” value (200 mg/kg vs vehicle) was 2.528 log FC. The “change in 12 hour urine Glu excretion (Fig 3b)” value (200 mg/kg vs vehicle) was 0.7559 log FC, the “change in 12 hour urine His excretion (Fig 3b)” value (200 mg/kg vs vehicle) was 2.089 log FC and the “change in 12 hour urine Lys excretion (Fig 3b)” value (200 mg/kg vs vehicle) was 0.6206 log FC. The “change in 12 hour urine Met excretion (Fig 3b)” value (200 mg/kg vs vehicle) was 1.349 log FC, the “change in 12 hour urine Phe excretion (Fig 3b)” value (200 mg/kg vs vehicle) was 1.635 log FC and the “change in 12 hour urine Pro excretion (Fig 3b)” value (200 mg/kg vs vehicle) was 0.1887 log FC. The “change in 12 hour urine Ser excretion (Fig 3b)” value (200 mg/kg vs vehicle) was 1.594 log FC, the “change in 12 hour urine Thr excretion (Fig 3b)” value (200 mg/kg vs vehicle) was 1.712 log FC and the “change in 12 hour urine Trp excretion (Fig 3b)” value (200 mg/kg vs vehicle) was 1.74 log FC. The “change in 12 hour urine Tyr excretion (Fig 3b)” value (200 mg/kg vs vehicle) was 1.783 log FC, the “12-hour urine Phe excretion (Fig 3c)” value (200 mg/kg) was 3871 µg and 5519 µg and 1571 µg and 5260 µg and 3572 µg and 5225 µg and the “change in 12 hour urine Arg excretion (Fig 3b)” value (250 mg/kg vs vehicle) was 0.6435 log FC. The “change in 12 hour urine Gln excretion (Fig 3b)” value (250 mg/kg vs vehicle) was 2.17 log FC, the “change in 12 hour urine Glu excretion (Fig 3b)” value (250 mg/kg vs vehicle) was 0.7482 log FC and the “change in 12 hour urine His excretion (Fig 3b)” value (250 mg/kg vs vehicle) was 1.862 log FC. The “change in 12 hour urine Lys excretion (Fig 3b)” value (250 mg/kg vs vehicle) was 0.7733 log FC, the “change in 12 hour urine Met excretion (Fig 3b)” value (250 mg/kg vs vehicle) was 1.454 log FC and the “change in 12 hour urine Phe excretion (Fig 3b)” value (250 mg/kg vs vehicle) was 1.613 log FC. For the same compound, the “change in 12 hour urine Pro excretion (Fig 3b)” value (250 mg/kg vs vehicle) was 0.0877 log FC, the “change in 12 hour urine Ser excretion (Fig 3b)” value (250 mg/kg vs vehicle) was 1.762 log FC and the “change in 12 hour urine Thr excretion (Fig 3b)” value (250 mg/kg vs vehicle) was 1.809 log FC. The “change in 12 hour urine Trp excretion (Fig 3b)” value (250 mg/kg vs vehicle) was 1.96 log FC, the “change in 12 hour urine Tyr excretion (Fig 3b)” value (250 mg/kg vs vehicle) was 1.972 log FC and the “12-hour urine Phe excretion (Fig 3c)” value (250 mg/kg) was 2655 µg and 3486 µg and 5073 µg and 6377 µg and 3651 µg and 2501 µg. For the same compound, the “urine Gln excretion” value [1] was 800 and 1688 and 2419 and 1193 and 1615, the “urine Phe excretion” value [1] was 1730 and 2424 and 3033 and 1556 and 1834 and the “glutamine excreted in urine, mean ± SD” value [2] was 1,543 ± 606 μg. The “urinary excretion of Phe, mean ± SD” value [2] was 2,115 ± 608 μg and the “increase in urinary Phe excretion” value (≥ 200 mg/kg, 12-hour urine, vs vehicle) was over 40 fold.
